Source: patent US11872210B2, “Thiol isomerases inhibitors and use thereof” (WESTERN NEW ENGLAND UNIVERSITY, priority 2017, dated 2024)

What was measured:
whole human blood = assay: Thrombus formation under flow (in vitro, collagen coated Cellix capillaries); type: cell-based
Description: Thrombus Formation under flow: Human blood was drawn into 3.2% (w/v) sodium citrate and labelled with 2 μM DIOC-6 for an hour. A […] biochip was coated with 1 μL Collagen (100 μg/mL) for 1 hour. Blood was then incubated with vehicle (0.1% (v/v) DMSO) or zafirlukast (10 μM) for 5 minutes prior to perfusion over collagen coated Cellix microfluidic cells at a shear rate of 20 dynes/cm^2. Images were recorded for 10 minutes perfusion by confocal microscopy (Nikon Al Microscope, Nikon, Japan) and analyzed using ImageJ. Whole human blood labelled with the lipophilic dye DIOC-6 was incubated with zafirlukast (10 μM) or vehicle (0.1% (v/v) DMSO) for 5 minutes before perfusion over […] capillaries coated with collagen (100 μg/mL) at an arterial shear rate of 20 dynes/cm^2. Images were recorded for 10 minutes using confocal microscopy and analyzed using ImageJ. The median fluorescence intensity was determined and compared to max intensity response; the more intense the fluorescence the larger the volume of thrombus formed.

thioredoxin (TRX) = target: T1, thioredoxin (TRX) (Homo sapiens, UniProt P10599); assay: Insulin-based turbidometric assay of thiol isomerase inhibitory activity (thioredoxin); type: biochemical; settings: insulin turbidity assay, 6 point dose curve
T1 construct: purchased AbCam (Cambridge Mass.)
T1 sequence (P10599 1-105): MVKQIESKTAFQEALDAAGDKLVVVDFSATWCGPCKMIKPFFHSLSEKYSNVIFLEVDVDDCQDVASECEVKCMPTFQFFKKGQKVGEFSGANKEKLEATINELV
Description: Recombinant thiol isomerases were purchased from AbCam (Cambridge Mass.), recombinant insulin (bovine), bacitracin, dithiothreitol (DTT) buffers and all other chemicals were purchased from Sigma Aldrich (St. Louis, Mo.; while 384 well clear bottom plates were purchased from Corning (Corning, N.Y.).
The catalytic reduction of insulin by thiol isomerases in the presence of DTT results in aggregation of insulin chains. The turbidity of insulin aggregation can be monitored spectrophotometrically at an optical density (OD) at 650 nm. This approach has been used by multiple groups to identify thiol isomerase inhibitors in either a kinetic or endpoint fashion. A final concentration of either 10 μg/mL PDI, 30 μg/mL ERp5, 10 μg/mL ERp72 or 10 μg/mL thioredoxin, 125 μM insulin and 2 mM ethylenediaminetetraacetic acid (EDTA) in 30 μL of 100 mM potassium phosphate buffer was added to each experimental well plate, while negative control wells lacked any thiol isomerase. Lead compounds were diluted in a 6 point dose curve and the turbidity of insulin aggregation was measured kinetically each minute for 75 minutes using a Spectramax M3 plate reader (Molecular Devices, Sunnyvale, Calif.) Specificity assay utilized the insulin turbidity assay as well.

platelets = assay: Platelet spreading upon collagen; type: cell-based; settings: 0.1 μM-10 μM
Description: Platelet responses in the presence of zafirlukast, (0.1 μM-10 μM) were tested in a range of platelet functional assays including aggregation, granule secretion and spreading studies.

OVCar8 cells = assay: PrestoBlue cell proliferation assay, OVCar8; type: cell-based, human; settings: OVCar8, ovarian cancer, 24 hours treatment
Description: Cells were plated at 6,000 cells/well in a 96-well plate and treated with the indicated concentration of zafirlukast 24 hours later. Cells were allowed to grow for an additional 24 hours before alterations in growth were measured by the PrestoBlue cell proliferation assay in triplicate. Fluorescence readings with an excitation at 570 nm and emission of 600 nm were collected and treated samples were converted to a percentage of the untreated controls. OVCar8 (human ovarian cancer cell line), HCT116 (human colon cancer), HeLa (cervical cancer cell line) and MDA-MB-231 (breast cancer cell line) cell lines were examined for their ability to inhibit cell proliferation. […] Table 1 illustrates the results of a cell proliferation assay testing zafirlukast against OVCar8 cells, HCT116 cells, HeLa cells and MDA-MB-231 cells.

washed platelets = assay: Dense granule secretion (ATP, lumi-aggregometer); type: cell-based, human; settings: 10 μM; collagen 1 μg/mL; vehicle 1.25 nM
Description: Human Platelet Preparation: 50 mL of blood was drawn from drug free, consenting individuals, into a syringe containing 5 mL sodium citrate (4% w/v) and 7.5 mL warmed ACD (85 mM sodium citrate, 71 mM citric acid and 110 mM glucose). Blood was centrifuged at 102 g for 20 minutes to obtain platelet-rich plasma (PRP), which was then decanted and 104 prostacyclin (PGI2 125 μg/mL, solubilized in ethanol) added. Platelets were pelleted by centrifugation at 1413 g for 10 minutes, platelet poor plasma was discarded and the pellet resuspended in 25 mL Tyrode's-HEPES buffer (134 mM NaCl, 2.9 mM KCl, 0.34 mM Na2HPO4, 12 mM NaHCO3, 20 mM HEPES, 1 mM MgCl2 and 5 mM glucose pH 7.3), 3 mL of ACD and 10 μL PGI2 were added and then following centrifugation at 1413 g for 10 minutes, the platelet pellet was re-suspended to the appropriate cell density using Tyrode's buffer. Platelets were rested for 30 minutes at 30° C. to allow platelet responses to recover.
Dense granule secretion: 395 μL of washed platelets were added to a cuvette and incubated with 5 μL of zafirlukast or vehicle (0.1% (v/v) DMSO) for 3 minutes at 37° C. 50 μL Chronolume substrate was added and incubated for a further 2 minutes. […]
Washed platelets (4×10^8 cells/mL), were pre-treated with zafirlukast (0.1-10 μM) or vehicle for 3 minutes. […] Statistical analysis was calculated using a one-way ANOVA (n=3), *P<0.05.

Tail bleeding assay = type: in vivo, C57/BL6 mice; settings: infused to circulating concentration of 20 μM, 5 minutes prior to tail biopsy
Description: The effects of zafirlukast on thrombus formation in mice was determined following laser injury of cremaster muscle arterioles, and observed by intravital microscopy. Male C57/BL6 mouse platelets were labelled with DyLight 649-conjugated anti-GPIb antibody (0.2 μg/g body weight) and either vehicle or zafirlukast (ZFL) infused (at a volume required to achieve a circulating concentration of 20 μM). Following laser injury, images were recorded for 5 minutes. […] FIG. 6 illustrates the effects of ZFL on bleeding were determined by tail bleeding assay. Vehicle or ZFL (at a volume required to achieve a circulating concentration of 20 μM) were infused into the femoral veins of C57/BL6 mice, 5 minutes prior to tail biopsy. 0.5 cm of tail tip was excised and blood collected in phosphate-buffered saline (PBS), and time to cessation of bleeding was recorded. […] Graphs represent mean±SEM, n=10 per treatment, data analyzed by Student's T test, ***p<0.005.

## COc1cc(C(=O)NS(=O)(=O)c2ccccc2C)ccc1Cc1cn(C)c2ccc(NC(=O)OC3CCCC3)cc12 [zafirlukast, 4-(5-cyclopentyloxycarbonylamino-1-methylindol-3-ylmethyl)-3-methoxy-N-o-tolylsulfonylbenzamide]
Whole human blood; 10 μM, 10 minutes perfusion
  final size of the thrombus (in words): significantly diminished compared to the vehicle
Whole human blood; 10 μM, after 8 minutes of flow, 20 dynes/cm^2, vehicle 89.15
  median fluorescence intensity (MFI) of thrombus: 74.86 Au
Whole human blood; Homo sapiens, arterial shear 20 dynes/cm^2, read-out: inhibition of median fluorescence intensity compared to vehicle
  inhibition at 10 µM: 14.2%
Thioredoxin (TRX)
  inhibitory range on TRX: 10 to 300 µM
platelets
  platelet spreading upon collagen (in words): inhibit
OVCar8 cells; Homo sapiens, OVCAR-8, 24 h
  IC50: 5 to 10 µM
OVCar8 cells
  IC50: 6 µM
Washed platelets
  mean ATP secretion: 0.327 nM
Tail bleeding assay
  bleeding time (time to cessation of bleeding), in words: no change in bleeding time
